Source: US20080255224A1, “PHARM[…] OF PSORIASIS” (priority 2007, published 2008)

What was measured:
[1] = system: keratinocyte proliferation; conditions: in vitro; cited from earlier work
[2] = prior use for nausea and vomiting of chemotherapy; cited from earlier work
psoriasis = assay: Oral nabilone in a patient suffering from psoriasis, inpatient, unblinded; assay type: in vivo, human
Method: A patient suffering from psoriasis was treated with oral nabilone on an inpatient, unblinded basis. The patient suffered from psoriasis which had not responded well to prior drug treatments. To assess whether nabilone was beneficial in alleviating symptoms, nabilone at a dose of 1 mg was added to all other anti-inflammatory and anti-psoriatic medications. The results were dramatic. The regimen administered was a 0.5 mg dosage twice daily for four days, and then 1 mg twice daily for five days and eventually 1 mg daily was administered to the patient. Itch which had been intolerable and incessant abolished with the 1st dose. By the 10th day of therapy the skin redness had disappeared.

[3] = system: epidermal keratinocyte differentiation; conditions: cited from earlier work

In the case of `COc1ccc2c(c1)c(CC(=O)N1CCOCC1)c(C)n2C(=O)c1ccc(Cl)cc1` [BML 190], the “Inhibition of keratinocyte proliferation” value [1] is listed as “only partial inhibition”.
For `CCCn1c(C)c(C(=O)c2cccc3ccccc23)c2ccccc21` [JWH015], the “Inhibition of keratinocyte proliferation” value [1] is given as “only partial inhibition”.
For `CCCCCCC(C)(C)c1cc(O)c2c(c1)OC(C)(C)[C@@H]1CC=C(CO)C[C@@H]21` [HU210], the “Inhibition of keratinocyte proliferation” value [1] is given as “concentration-dependent response”.
In the case of `CCCCCCC(C)(C)c1cc(O)c2c(c1)OC(C)(C)C1CCC(=O)CC21` (centres unmarked) [nabilone], the Immunosuppressive potential [2] is listed as “does not show immunosuppressive potential”, the Tolerability [2] is listed as “well tolerated” and the Itch (psoriasis; oral nabilone added to all other anti-inflammatory and anti-psoriatic medications, with the 1st dose (0.5 mg)) is listed as “abolished”. The Skin redness (psoriasis; oral, by the 10th day of therapy (0.5 mg twice daily for four days, then 1 mg twice daily for five days, then 1 mg daily)) was “disappeared”.
For `CCCCC/C=C\C/C=C\C/C=C\C/C=C\CCCC(=O)NCCO` [Anadamide], the “Effect on epidermal keratinocyte differentiation” value [3] is given as “inhibits”.
